According to ChEMBL document CHEMBL2203066 (J Med Chem, 2012):

Experiments:
Influenza A virus [1] = experiment: Antiviral activity against oseltamivir-resistant Influenza A virus A/Hong Kong/2369/09/H275Y(H1N1) infected in MDCK cells assessed as protection against virus-induced cytopathic effect after 48 to 72 hrs by CellTiter 96 aqueous assay; assay type: functional, organism-based
Influenza A virus [2] = experiment: Antiviral activity against oseltamivir-resistant Influenza A virus A/WSN/1933/H275Y (pandemic H1N1) infected in MDCK cells assessed as protection against virus-induced cytopathic effect after 48 to 72 hrs by CellTiter 96 aqueous assay; assay type: functional, organism-based, A/WSN/1933/H275Y(H1N1)

Structure (SMILES) | EC50 (Influenza A virus [1]) | EC50 (Influenza A virus [2])
CCC(CC)O[C@@H]1C=C(P(=O)(O)O)C[C@H](NC(=N)N)[C@H]1NC(C)=O | 4.6 µM | 3.2 µM
CCC(CC)O[C@@H]1C=C(P(=O)(O)O)C[C@H](N)[C@H]1NC(C)=O [TAMIPHOSPHOR] | 6.55 µM | 7.4 µM
CCOP(=O)(O)C1=C[C@@H](OC(CC)CC)[C@H](NC(C)=O)[C@@H](N)C1 [TAMIPHOSPHOR MONOETHYL ESTER] | 0.44 µM | 0.49 µM
